What was measured:
Assay type in all cases: in vivo, Swiss albino mice
DAL [1] = assay: Mean survival time (MST) in DAL-bearing mice
Procedure: (§1) The extracts used were in the form of suspension with tween-20 (one part by volume) and distilled water (two parts by volume). The prepared extracts were also used for further studies. Animals used for studies were Swiss albino mice. Six experiments were carried for each plant extract.
(§2) After development of tumor the drug treatment was given on the 9th day and the 18th day post tumor inoculation. The peritoneal fluid was collected once on the 11th day and 20th day from each mouse and the following parameters were examined in antitumor assessment:
Mean Survival time (MST);
(§3) Statistical analysis: The data for anti-tumor activity was analyzed by one-way ANOVA followed by Dunnett's ‘t’ test. P<0.05 was considered statistically significant.

DAL [2] = assay: Body weight (tumor volume) of DAL-bearing mice; settings: for body weight: mean of six experiments
Procedure: as §1, §2
Body weight (tumor volume). All parameters were examined with standard procedures.

DAL [3] = assay: Hematological parameters in DAL-bearing mice; settings: 5-FU 12.5 mg/kg p.o., extracts 300 mg/kg p.o.
Procedure: The extracts used were in the form of suspension with tween-20 (one part by volume) and distilled water (two parts by volume). The prepared extracts were also used for further studies. Animals used for studies were Swiss albino mice. Six experiments were carried for each plant extract. After development of tumor the drug treatment was given on the 9th day and the 18th day post tumor inoculation. […] Hematological parameters, such as WBC, RBC, Hb, differential Leucocyte count; Statistical analysis: The data for anti-tumor activity was analyzed by one-way ANOVA followed by Dunnett's ‘t’ test. P<0.05 was considered statistically significant.

DAL [4] = assay: Dead cell count of DAL ascitic fluid in mice
Procedure: as §1, §2
Ascitic fluid for cell cytology, specifically dead cell count and histopathology.
as §3

## O=c1[nH]cc(F)c(=O)[nH]1 [5-FU, 5-Fluorouracil]
DAL [1]; DAL-bearing mice
  No. of Days Alive ± SEM: 26 ± 0.24 days
DAL [1]; tumor control (DAL) = 100
  Mean Survival time (%): 110%
DAL [2]; 20th day post-tumor inoculation
  % increase in body weight on 20th day post-tumor inoculation: 32.08%
DAL [2]; day 9 post tumor inoculation
  body weight: 22.33 grams
DAL [2]; day 10 post tumor inoculation
  body weight: 22.33 grams
DAL [2]; day 11 post tumor inoculation
  body weight: 22.66 grams
DAL [2]; day 12 post tumor inoculation
  body weight: 23 grams
DAL [2]; day 13 post tumor inoculation
  body weight: 26.33 grams
DAL [2]; day 14 post tumor inoculation
  body weight: 27 grams
DAL [2]; day 15 post tumor inoculation
  body weight: 28.66 grams
DAL [2]; day 18 post tumor inoculation
  body weight: 30 grams
DAL [2]; day 20 post tumor inoculation
  body weight: 30 grams
DAL [2]; day 21 post tumor inoculation
  body weight: 30 grams
DAL [2]; day 24 post tumor inoculation
  body weight: 30 grams
DAL [3]; Day 11
  Hb g/dl ± SEM: 5.8 ± 0.98 g/dL
  Lymphocytes ± SEM: 48 ± 0.41
  Monocytes: 2
  Neutrophils ± SEM: 56 ± 0.82
  RBC × 10^6 ± SEM: 2.20 ± 0.08 × 10^6
DAL [3]; Day 20
  Hb g/dl ± SEM: 7.2 ± 0.04 g/dL
  Lymphocytes ± SEM: 54.98 ± 0.81
  Monocytes: 2
  Neutrophils ± SEM: 34.98 ± 0.03
  RBC × 10^6 ± SEM: 2.61 ± 0.03 × 10^6
  WBC ± SEM: 11,600 ± 2.03
DAL [4]; 11th day
  % of dead cells: 35%
  % protection against tumor: 52%
DAL [4]; 20th day
  % of dead cells: 51%
  % protection against tumor: 54.54%
